Reference: paper PMC9525273 (Nature Communications, 2022)
Where “and” joins values, the source holds several entries; their conditions need not be identical. Identical values can stand only once. Like-named read-outs stand apart in the source and are kept apart here.

Tests used:
Dd2-B2 parasites = test: P. falciparum proliferation assay (72 h, flow cytometry, SYBR Green I/MitoTracker); assay type: cell-based; conditions: Plasmodium falciparum, DD2, read-out: IC50 value
Experimental: (§1) Two types of parasite proliferation assays were employed in this study, with both yielding highly consistent results. For the NF54-based lines and Dd2-B2-PfATP4^G358S and its parent, assays were initiated with cultures containing predominantly ring-stage parasites with a parasitaemia of 0.3% and a haematocrit of 1%. All assays using NF54 were performed in culture media containing 10% O + human serum. The duration of the assays was 72 h and the concentration of DMSO was <0.5% (v/v). Serial dilutions of the test compounds were performed using a Tecan D300e digital dispenser, with parasite cultures added manually. Parasite survival was assessed by flow cytometry on an Intellicyt iQue3 (Essen Bioscience), with 1× SYBR Green I (Invitrogen) and 200 nM MitoTracker Deep Red FM (Invitrogen) used to stain the nucleus and the mitochondria in live parasites, respectively. The gating strategy used to quantify parasite survival, performed using FlowJo version 10 (FlowJo LLC.), is illustrated in Supplementary Fig. 9. IC50 and IC90 values were calculated by linear interpolation of the dose-response data.

[1] = system: Dd2-B2-PfATP4^G358S parasites; test: as above; assay type: cell-based; conditions: Plasmodium falciparum; Dd2-B2-PfATP4G358S; mean ± SEM
Experimental: as §1

[2] = system: isolated Dd2-Polδ P. falciparum trophozoites; test: [Na+]cyt measurement (SBFI), Na+ dysregulation; assay type: cell-based, Plasmodium falciparum; design: Final [Na+]cyt reached: unit not given here; conditions: for Final [Na+]cyt reached: Dd2-Polδ; for IC50: Plasmodium falciparum
Experimental: (§2) The ratio of the fluorescence intensity recorded at 340 nm and 380 nm (with an emission wavelength of 515 nm) was converted to [Na^+]cyt using a calibration procedure that entailed suspending parasites in solutions of varying [Na^+] containing ionophores. Fluorescence measurements and calibrations were performed at 37 °C, either with individual 1 mL suspensions using a PerkinElmer LS 50B fluorescence spectrometer (for resting [Na^+]cyt measurements for which the data are shown in Supplementary Fig. 7) or in 96-well plates using a Tecan Infinite M1000 PRO plate reader with i-control (version 1.12) software (all other [Na^+]cyt measurements).

[3] = system: isolated Dd2-Polδ-PfATP4^G358S P. falciparum trophozoites; test: [Na+]cyt measurement (SBFI), Na+ dysregulation; assay type: cell-based, Plasmodium falciparum; design: Final [Na+]cyt reached: unit not given here
Experimental: as §2

[4] = system: extracellular T. gondii tachyzoites expressing TgATP4^G419S-HA; test: [Na+]cyt measurement (SBFI), Na+ dysregulation; assay type: cell-based, Toxoplasma gondii; design: Final [Na+]cyt reached: unit not given here; conditions: TgATP4G419S-HA; for IC50: Toxoplasma gondii
Experimental: as §2

[5] = system: extracellular T. gondii tachyzoites expressing TgATP4^WT; test: [Na+]cyt measurement (SBFI), Na+ dysregulation; assay type: cell-based, Toxoplasma gondii; design: Final [Na+]cyt reached: unit not given here
Experimental: as §2

[6] = [cipargamin] 62.5 nM, single experiments
[7] = [cipargamin] 250 nM, single experiments

## C[C@H]1Cc2c([nH]c3cc(Cl)c(F)cc23)[C@@]2(N1)C(=O)Nc1ccc(Cl)cc12 [Cipargamin]
Dd2-B2 parasites
  IC50: 2.17 ± 0.24 nM
[1]
  IC50: 1640 ± 80 nM
[2]; [cipargamin] 0.06 nM, MEAN
  Final [Na+]cyt reached: 13.0
[2]; [cipargamin] 0.12 nM, MEAN
  Final [Na+]cyt reached: 12.3
[2]; [cipargamin] 0.244 nM, MEAN
  Final [Na+]cyt reached: 15.5
[2]; [cipargamin] 0.5 nM, MEAN
  Final [Na+]cyt reached: 26.2
[2]; [cipargamin] 1.0 nM, MEAN
  Final [Na+]cyt reached: 27.3
[2]; [cipargamin] 2.0 nM, MEAN
  Final [Na+]cyt reached: 45.7
[2]; [cipargamin] 3.9 nM, MEAN
  Final [Na+]cyt reached: 57.4
[2]; [cipargamin] 7.8 nM, MEAN
  Final [Na+]cyt reached: 88.5
[2]; [cipargamin] 15.6 nM, MEAN
  Final [Na+]cyt reached: 98.7
[2]; [cipargamin] 31.3 nM, MEAN
  Final [Na+]cyt reached: 113.1
[2]; [cipargamin] 62.5 nM, MEAN
  Final [Na+]cyt reached: 115.1
[2]; [6]
  Final [Na+]cyt reached: 78.0 and 146.2 and 96.4 and 129.7 and 125.5
[2]; [cipargamin] 250 nM, MEAN
  Final [Na+]cyt reached: 115.9
[2]; [7]
  Final [Na+]cyt reached: 94.4 and 105.7 and 130.4 and 132.9
[2]; DD2, 1.5 h, pH 7.1, Dd2-Polδ, ~90 min exposure, 37 °C, pH 7.1, mean ± SEM, read-out: IC50 for Na+ dysregulation
  IC50: 8.4 ± 3 nM
[2]; DD2, Dd2-Polδ, MEAN, source data of Table 1 (nM there), read-out: IC50 for Na+ dysregulation, MEAN
  IC50: 8.38 nM
[3]; Dd2-Polδ-PfATP4G358S, [cipargamin] 4.9 nM, MEAN
  Final [Na+]cyt reached: 28.1
[3]; Dd2-Polδ-PfATP4G358S, [cipargamin] 4.9 nM, single experiments
  Final [Na+]cyt reached: 19.9 and 30.8 and 33.6
[3]; Dd2-Polδ-PfATP4G358S, [cipargamin] 9.8 nM, MEAN
  Final [Na+]cyt reached: 23.6
[3]; Dd2-Polδ-PfATP4G358S, [cipargamin] 19.5 nM, MEAN
  Final [Na+]cyt reached: 24.9
[3]; Dd2-Polδ-PfATP4G358S, [cipargamin] 39.1 nM, MEAN
  Final [Na+]cyt reached: 26.7
[3]; Dd2-Polδ-PfATP4G358S, [cipargamin] 78.1 nM, MEAN
  Final [Na+]cyt reached: 27.0
[3]; Dd2-Polδ-PfATP4G358S, [cipargamin] 156.3 nM, MEAN
  Final [Na+]cyt reached: 28.5
[3]; Dd2-Polδ-PfATP4G358S, [cipargamin] 312.5 nM, MEAN
  Final [Na+]cyt reached: 31.8
[3]; Dd2-Polδ-PfATP4G358S, [cipargamin] 625 nM, MEAN
  Final [Na+]cyt reached: 35.9
[3]; Dd2-Polδ-PfATP4G358S, [cipargamin] 2500 nM, MEAN
  Final [Na+]cyt reached: 55.3
[3]; Dd2-Polδ-PfATP4G358S, [cipargamin] 5000 nM, MEAN
  Final [Na+]cyt reached: 78.8
[3]; Dd2-Polδ-PfATP4G358S, [cipargamin] 10000 nM, MEAN
  Final [Na+]cyt reached: 93.3
[3]; Dd2-Polδ-PfATP4G358S, single experiments, source data of Table 1 (nM there), read-out: IC50 for Na+ dysregulation
  IC50: > 2500 nM and 3420 nM and 2100 nM and 3020 nM
[3]; Plasmodium falciparum, DD2, 1.5 h, pH 7.1, Dd2-Polδ-PfATP4G358S, ~90 min exposure, 37 °C, pH 7.1, read-out: IC50 for Na+ dysregulation
  IC50: > 2000 nM
[3]; Plasmodium falciparum, DD2, Dd2-Polδ-PfATP4G358S, MEAN, source data of Table 1 (nM there), read-out: IC50 for Na+ dysregulation, MEAN
  IC50: > 2000 nM
[3]; Plasmodium falciparum, DD2, Dd2-Polδ-PfATP4G358S, single experiments, source data of Table 1 (nM there), read-out: IC50 for Na+ dysregulation
  IC50: 3540 nM
[4]; [cipargamin] 7.8 nM, MEAN
  Final [Na+]cyt reached: 14.1
[4]; [cipargamin] 7.8 nM, single experiments
  Final [Na+]cyt reached: 13.4 and 14.3 and 14.5
[4]; [cipargamin] 15.6 nM, MEAN
  Final [Na+]cyt reached: 15.4
[4]; [cipargamin] 15.6 nM, single experiments
  Final [Na+]cyt reached: 14.1 and 15.1 and 17.0
[4]; [cipargamin] 31.3 nM, MEAN
  Final [Na+]cyt reached: 15.4
[4]; [cipargamin] 31.3 nM, single experiments
  Final [Na+]cyt reached: 13.9 and 14.5 and 17.9
[4]; [cipargamin] 62.5 nM, MEAN
  Final [Na+]cyt reached: 14.3
[4]; [6]
  Final [Na+]cyt reached: 13.2 and 14.1 and 15.7
[4]; [cipargamin] 250 nM, MEAN
  Final [Na+]cyt reached: 13.7
[4]; [7]
  Final [Na+]cyt reached: 13.6 and 14.5 and 12.9
[4]; [cipargamin] 500 nM, MEAN
  Final [Na+]cyt reached: 14.5
[4]; [cipargamin] 500 nM, single experiments
  Final [Na+]cyt reached: 12.6 and 13.5 and 17.5
[4]; [cipargamin] 1000 nM, MEAN
  Final [Na+]cyt reached: 16.4
[4]; [cipargamin] 1000 nM, single experiments
  Final [Na+]cyt reached: 14.3 and 16.7 and 18.1
[4]; [cipargamin] 2000 nM, MEAN
  Final [Na+]cyt reached: 17.1
[4]; [cipargamin] 2000 nM, single experiments
  Final [Na+]cyt reached: 13.3 and 17.0 and 20.8
[4]; [cipargamin] 4000 nM, MEAN
  Final [Na+]cyt reached: 24.3
[4]; [cipargamin] 4000 nM, single experiments
  Final [Na+]cyt reached: 22.1 and 21.4 and 29.4
[4]; [cipargamin] 8000 nM, MEAN
  Final [Na+]cyt reached: 34.2
[4]; [cipargamin] 8000 nM, single experiments
  Final [Na+]cyt reached: 32.0 and 31.0 and 39.5
[4]; 1.5 h, ~90 min exposure, 37 °C, pH 7.1, read-out: IC50 for Na+ dysregulation
  IC50: > 8000 nM
[4]; MEAN, source data of Table 1 (nM there), read-out: IC50 for Na+ dysregulation, MEAN
  IC50: > 8000 nM
[4]; single experiments, source data of Table 1 (nM there), read-out: IC50 for Na+ dysregulation
  IC50: > 8000 nM
[5]; Toxoplasma gondii, 1.5 h, pH 7.1, WT T. gondii (TgATP4WT), ~90 min exposure, 37 °C, pH 7.1, mean ± SEM, read-out: IC50 for Na+ dysregulation
  IC50: 110 ± 3 nM
[5]; Toxoplasma gondii, WT T. gondii, MEAN, source data of Table 1 (nM there), read-out: IC50 for Na+ dysregulation, MEAN
  IC50: 110 nM
[5]; Toxoplasma gondii, WT T. gondii, single experiments, source data of Table 1 (nM there), read-out: IC50 for Na+ dysregulation
  IC50: 103 nM
[5]; WT T. gondii, [cipargamin] 0.5 nM, MEAN
  Final [Na+]cyt reached: 15.8
[5]; WT T. gondii, [cipargamin] 0.5 nM, single experiments
  Final [Na+]cyt reached: 14.2 and 16.3 and 16.8
[5]; WT T. gondii, [cipargamin] 1.0 nM, MEAN
  Final [Na+]cyt reached: 16.2
[5]; WT T. gondii, [cipargamin] 1.0 nM, single experiments
  Final [Na+]cyt reached: 15.5 and 17.0 and 16.2
[5]; WT T. gondii, [cipargamin] 2.0 nM, MEAN
  Final [Na+]cyt reached: 14.1
[5]; WT T. gondii, [cipargamin] 3.9 nM, MEAN
  Final [Na+]cyt reached: 20.7
[5]; WT T. gondii, [cipargamin] 3.9 nM, single experiments
  Final [Na+]cyt reached: 19.6 and 20.6 and 21.8
[5]; WT T. gondii, [cipargamin] 7.8 nM, MEAN
  Final [Na+]cyt reached: 23.3
[5]; WT T. gondii, [cipargamin] 7.8 nM, single experiments
  Final [Na+]cyt reached: 25.2 and 22.3 and 22.5
[5]; WT T. gondii, [cipargamin] 15.6 nM, MEAN
  Final [Na+]cyt reached: 26.7
[5]; WT T. gondii, [cipargamin] 15.6 nM, single experiments
  Final [Na+]cyt reached: 29.0 and 26.8 and 24.3
[5]; WT T. gondii, [cipargamin] 31.3 nM, MEAN
  Final [Na+]cyt reached: 34.0
[5]; WT T. gondii, [cipargamin] 31.3 nM, single experiments
  Final [Na+]cyt reached: 35.7 and 36.9 and 29.4
[5]; WT T. gondii, [cipargamin] 62.5 nM, MEAN
  Final [Na+]cyt reached: 44.2
[5]; WT T. gondii, [cipargamin] 62.5 nM, single experiments
  Final [Na+]cyt reached: 43.2 and 51.7 and 37.6
[5]; WT T. gondii, [cipargamin] 250 nM, MEAN
  Final [Na+]cyt reached: 75.6
[5]; WT T. gondii, [cipargamin] 250 nM, single experiments
  Final [Na+]cyt reached: 72.9 and 86.9 and 66.9
[5]; WT T. gondii, [cipargamin] 500 nM, MEAN
  Final [Na+]cyt reached: 86.6
[5]; WT T. gondii, [cipargamin] 500 nM, single experiments
  Final [Na+]cyt reached: 82.0 and 102.0 and 75.9
[5]; WT T. gondii, [cipargamin] 1000 nM, MEAN
  Final [Na+]cyt reached: 91.2
[5]; WT T. gondii, [cipargamin] 1000 nM, single experiments
  Final [Na+]cyt reached: 85.2 and 107.2 and 81.2
[5]; WT T. gondii, single experiments, source data of Table 1 (nM there), read-out: IC50 for Na+ dysregulation
  IC50: 113 nM
